Structure (SMILES) | melting point
CC(=O)OC1CC[C@@]2(C)C(CC[C@@H]3[C@@H]2CC[C@@]2(C)[C@H]3CC[C@]2(O)CCc2ccccc2)C1 (stereo not given in full) | 137 to 139 °C
O=C1C=CC(=O)N1c1cccnc1Cl | 115 to 117 °C
Cc1cc(C(=O)O)c(C)n1Cc1cccs1 | 184 to 187 °C
CC1(C)CC(=O)c2cc(-c3ccccc3)n(-c3ccc(Cl)cc3)c2C1 | 185 to 187 °C
Cc1ccncc1S(=O)(=O)O | 300 °C
O=c1ccnc[nH]1 | 163 to 168 °C
Cc1nc(-c2cccc(CBr)c2)no1 | 71 to 72 °C
Cc1ncccc1N | 117 °C
CC(C)(C)OC(=O)N1CCC[C@@H]1C(=O)O | 133 to 135 °C
CC1=C(C)S(=O)(=O)CCS1(=O)=O | 168 °C
S=C=NC(c1ccccc1)(c1ccccc1)c1ccccc1 | 138 to 140 °C
CC(=O)OCC1OC(OC2OC=CC3C(OC(=O)c4ccc(OC(C)=O)cc4)C4OC4(COC(C)=O)C23)C(OC(C)=O)C(OC(C)=O)C1OC(C)=O (stereo not given) | 135 °C
CCCCCCCC(=O)NN | 88 °C
NNc1cccc2ccccc12 | 117 °C
O=Cc1ccc(F)c(Cl)c1 | 28 to 30 °C
Clc1cc2c(cc1Cl)Oc1c(cc(Cl)c(Cl)c1Cl)O2 | 240 °C
CC1CCCCC1NC(=O)Nc1ccccc1 (stereo not given) | 136 °C
Cc1cc([N+](=O)[O-])cnc1N | 260 °C
Cc1ccc(C2CC(c3ccc4ccccc4c3)=NN2c2ccccc2)cc1 (stereo not given) | 168 °C
Clc1nc(Cl)nc(Cl)n1 | 154 °C
NNc1ccc(C(=O)O)cc1 | 205 °C
CC1(C)C2CCC(C2)C12COC(=O)N2 (single isomer, unassigned; (-)) | 227 to 229 °C
O=P1(N(CCCl)CCCl)NCCCO1 (stereo not given) | 51.5 °C
COc1ccc(Cc2cnc(N)nc2N)cc1OC | 233 °C
COc1ccc(S(=O)(=O)Cl)cc1OC | 68 °C
COC(=O)c1c(N)sc2c1CCCC2 | 128 °C

Structure (SMILES) | melting point
Cc1cnc2ccccc2c1C | 73.5 °C
NC(N)=NS(=O)(=O)c1ccc(N)cc1 | 192 °C
O=C(O)c1cccnc1Br | 254 °C
CC(=O)N(Nc1ccccc1)c1ccc(-c2ccc(N(Nc3ccccc3)C(C)=O)cc2)cc1 | 235 °C
CCCCC[C@H]1CC[C@H](C(=O)O)CC1 | 52 to 56 °C
Cc1nc(-c2ccc(-c3ccccc3)cc2)cs1 | 113 to 118 °C
C=C(C)C(C)(C)CC | -69 °C
O=C(O)c1cc(F)c(F)c(F)c1 | 98 °C
O=C(C=CC1=NC=NC1)NCCc1cnc[nH]1 | 240 to 241 °C
CCC(COCCOc1c(I)cc(I)c(NC(C)=O)c1I)C(=O)O (stereo not given) | 130 °C
Cc1c(F)c(F)c(C(=O)O)c(F)c1F | 174 °C
Cc1ccc(C(=O)/C=C/c2ccc(Br)o2)o1 | 69 °C
FC(F)(F)C(F)(F)C(F)(F)C(F)(F)C(F)(F)C(F)(F)C(F)(F)C(F)(F)CCI | 82.5 °C
Cc1cc2ccccc2nc1Cl | 83 to 84 °C
O=C(O)/C=C/c1c(F)cccc1F | 124 to 125 °C
CC(C)CCC[C@@H](C)[C@H]1CC[C@H]2[C@@H]3CC[C@H]4C[C@H](O)CC[C@]4(C)[C@H]3CC[C@]12C | 186 °C
CCC1(c2ccccc2)C(=O)NC(=O)N(C)C1=O (stereo not given) | 176 °C
O=C(Cl)c1cc(-c2ccccc2)on1 | 86 to 88 °C
FCF | -136 °C
Cc1[nH]c2ccccc2c1C | 106 °C
COc1cc(Br)c(C=CC(=O)O)cc1OC | 253 to 259 °C
COC(=O)c1cc2ccccc2cn1 | 88 to 89 °C
Nc1ccn(C2OC(COP(=O)(O)O)C(O)C2O)c(=O)n1 (stereo not given) | 233 °C
Cc1ccc(-c2nc(C(=O)O)cs2)cc1 | 170 °C
Brc1ccc(-c2ccco2)cc1 | 83 to 84 °C
O=C1Nc2ccc([N+](=O)[O-])cc2C1=O | 251 °C

Structure (SMILES) | melting point
Clc1cc(Br)ccc1I | 35 to 37 °C
O=C1CCCN1c1ccc(C(F)(F)F)cc1 | 134 to 136 °C
S=c1nnc(-c2ccccc2)c(Nc2ccc(Cl)cc2)[nH]1 | 314 °C
CCCCCCCCCCC(C)C(=O)O (stereo not given) | 22 °C
CC(C)(O)C#N | -19 °C
CC(=O)c1c(C)c(C)cc(C)c1C | 75 °C
NC(=O)c1cccnc1Oc1ccc(Cl)cc1 | 150 to 152 °C
O=[N+]([O-])CCc1ccccc1 | -23 °C
COC(=O)c1cnc(Br)s1 | 63 °C
Cc1cc(C#N)ccc1F | 55 °C
C=CCC1(CC(C)C)C(=O)NC(=O)NC1=O | 138 °C
O=C(c1ccc(F)cc1)C(F)(F)F | 24 to 27 °C
CC(C)OC(=O)c1cc(-c2nn(C)c(C(F)(F)F)c2Br)c(F)cc1Cl | 80 °C
CCOC(=O)C(C#N)=NNc1cccc([N+](=O)[O-])c1 | 155 to 156 °C
COc1ccc(-c2nnc3n2NC(c2ccc(OC)cc2)S3)cc1 (stereo not given) | 152 °C
CC(=O)N[C@H]1[C@H](OC(C)=O)O[C@H](COC(C)=O)[C@@H](OC(C)=O)[C@@H]1OC(C)=O | 186 to 189 °C
NNC(=O)CCCO | 93 °C
O=C1c2ccccc2C(=O)c2c1ccc1ccccc21 | 170 °C
COC(=O)C1Nc2ccccc2C1(C)C (stereo not given) | 168 to 170 °C
CCCCOCCOP(=O)(OCCOCCCC)OCCOCCCC | -70 °C
CC(=O)c1ccc(Cl)c(Cl)c1Cl | 62 °C
COc1ccc[nH]c1=O | 115 °C
O=C1c2ccccc2C(=C2c3ccccc3C(=O)c3ccccc32)c2ccccc21 | 300 °C
CC(C)OC(=O)Nc1cccc(Cl)c1 | 42 °C
O=[N+]([O-])c1ccc(C2Nn3c(nnc3-c3ccccc3)S2)cc1 (stereo not given) | 225 °C
O=C(O)c1ccccc1-n1cccn1 | 190 to 193 °C

Structure (SMILES) | melting point
O=C1c2ccccc2C(=O)c2cc(CO)ccc21 | 192 to 197 °C
ON=C(NN=C(Cl)C(F)(F)F)C(F)(F)F | 119 °C
CC(C)(C)OC(=O)N1CCN(Cc2cccc(N)c2)CC1 | 107 to 108 °C
COc1cc2c(cc1C)C(Cl)C2 (stereo not given) | 41 °C
CC(C)P(c1ccccc1)c1ccccc1 | 40 °C
O=C(Oc1c(F)c(F)c(F)c(F)c1F)c1ccncc1 | 47.5 to 55.5 °C
OCc1cc(C(F)(F)F)ccc1Br | 72 °C
O=C(O)c1cc(S(=O)(=O)F)c2ccccc2c1O | 300 °C
ON(c1ccccc1)C(Br)C(Br)c1ccccc1 (stereo not given) | 125 °C
Cc1cncc(C#N)c1 | 84 °C
COC(CNC(c1ccccc1)C(O)c1ccccc1)OC (stereo not given) | 145 °C
CC(=O)c1cc2ccccc2oc1=O | 122 °C
OC1CC(c2ccccc2)NC2(CCCC2)C1 (stereo not given) | 240 to 243 °C
Cc1c(CO)cnn1-c1ccc(F)cc1 | 120 to 121 °C
O=C(Cl)c1ccc(-c2ccccc2)s1 | 76 to 80 °C
Nc1nc(-c2ccc(F)c(F)c2)cs1 | 116 to 117 °C
O=C(Nc1ccc(N=Nc2ccc([N+]([O-])=Nc3ccc(NC(=O)c4ccccc4)cc3)cc2)cc1)c1ccccc1 | 328 °C
CN1CCc2c(sc(N)c2C#N)C1 | 192 to 194 °C
CC1=CCC2C(C)(C)CCCC2(C)C12CCC(C)(CC(=O)O)O2 (stereo not given) | 100 °C
O=C(Cl)c1ccccc1[N+](=O)[O-] | 17 to 20 °C
COc1cc(F)c(F)cc1CBr | 42 °C
O=[N+]([O-])c1ccc(N2CCCCC2)cc1 | 104 to 106 °C
CC1(c2ccccc2)CNCCO1 (stereo not given) | 36 °C
N#C/C(=C\c1ccc(Cl)cc1Cl)c1nc2ccccc2[nH]1 | 249 °C
O=[N+]([O-])C=Cc1cccc([N+](=O)[O-])c1 | 126 °C
COc1ccc(C2C3=C(CC(C)(C)CC3=O)Nc3ccc4ccccc4c32)cc1 (stereo not given) | 288 °C

Structure (SMILES) | melting point
CC/C(=N\O)C1=CC2(C)CCC1C2(C)C (stereo not given) | 107 °C
CN1CCc2cc3c(cc2C1)OCO3 | 66 °C
Cc1cc(C)c(I)c(C)c1 | 29 °C
CC(=O)Oc1ccc2c3c1OC1C(OC(C)=O)C=CC4C(C2)N(C)CCC341 (stereo not given) | 173 °C
CC(C)CC(=O)C1C(=O)c2ccccc2C1=O | 68.5 °C
Cc1ccccc1C(=O)Cc1ccccc1C(=O)OC(C)(C)C | 30 to 36 °C
O=S(=O)(c1ccccc1)n1ccc2ccccc21 | 78 to 80 °C
CC(=O)c1nn(-c2cccc([N+](=O)[O-])c2)c(=NC(=O)c2ccccc2)s1 | 196 °C
O=c1oc2ccccc2cc1O | 154 °C
O=C(O)C=Cc1c(Cl)cccc1Cl | 192 to 196 °C
COc1cc(C2Nn3c(nnc3-c3cccnc3)S2)ccc1O (stereo not given) | 216 °C
CC(=O)CCc1oc2c([N+](=O)[O-])cccc2c1-c1ccc(C)o1 | 103 °C
CCCCNC | -75 °C
O=C(O)C=Cc1ccc(F)cc1Cl | 247 °C
CC(C)(C)C=O | 6 °C
O=C(O)c1cc(Br)ccc1Cl | 160 °C
O=CC=Cc1ccc([N+](=O)[O-])o1 | 118 °C
O=C(Cl)c1ccc2nsnc2c1 | 111 °C
CC(C)(O)c1ccc(-c2ccccc2)cc1 | 91.5 °C
O=C(O)c1ccc(C(=O)O)c(Br)c1 | 295 to 297 °C
CCCN=C=O | -30 °C
COc1ccccc1C1(C)CCc2oc3ccc(Br)cc3c2-c2oc(C)cc21 (stereo not given) | 209 °C
OCc1ccc(-c2nccs2)cc1 | 94 to 97 °C
Cc1ccc(Cl)cc1NC(N)=S | 160 to 161 °C
CNS(=O)(=O)Cc1ccc2[nH]cc(CCN(C)C)c2c1 | 169 °C
Cc1onc(-c2c(F)cccc2Cl)c1C(N)=O | 127 to 129 °C

Source: a melting point compilation (Tetko et al.)
